From the NIST ThermoML archive (doi:10.1016/j.jct.2009.06.008)
Where “and” joins values, the source holds several entries; their conditions need not be identical. Equal values may be shown once.

Details: Crystal, Calculated from knudsen effusion weight loss

O=[N+]([O-])c1cccc(Br)c1 [1-bromo-3-nitrobenzene]
Details	vapor or sublimation pressure
279.57 K	0.000143 kPa and 0.000142 kPa and 0.000141 kPa
281.21 K	0.000184 kPa and 0.000183 kPa and 0.000181 kPa
283.14 K	0.000238 kPa and 0.000237 kPa and 0.000236 kPa
285.16 K	0.000299 kPa and 0.000294 kPa and 0.000301 kPa
287.19 K	0.000398 kPa and 0.000385 kPa and 0.000381 kPa
289.39 K	0.000507 kPa and 0.000506 kPa and 0.000496 kPa
291.16 K	0.000649 kPa and 0.00065 kPa and 0.000635 kPa
293.15 K	0.000817 kPa and 0.000815 kPa and 0.00079 kPa
295.17 K	0.001067 kPa and 0.001054 kPa and 0.001033 kPa

O=[N+]([O-])c1ccccc1Br [1-bromo-2-nitrobenzene]
Details	vapor or sublimation pressure
275.15 K	9.5e-05 kPa and 9.4e-05 kPa
277.15 K	0.000124 kPa and 0.000123 kPa
279.16 K	0.000164 kPa and 0.000165 kPa
281.17 K	0.00021 kPa and 0.000212 kPa and 0.000208 kPa
283.17 K	0.000279 kPa and 0.00028 kPa and 0.000277 kPa
285.17 K	0.000351 kPa and 0.000353 kPa and 0.00035 kPa
287.21 K	0.000451 kPa and 0.000459 kPa and 0.000448 kPa
289.17 K	0.000581 kPa and 0.000592 kPa and 0.000594 kPa
291.14 K	0.000733 kPa and 0.000729 kPa and 0.000735 kPa
293.14 K	0.000913 kPa and 0.000939 kPa and 0.000925 kPa
295.16 K	0.001204 kPa and 0.00121 kPa and 0.001218 kPa

O=[N+]([O-])c1ccc(Br)cc1 [1-bromo-4-nitrobenzene]
Details	vapor or sublimation pressure
289.15 K	0.000103 kPa and 0.000101 kPa and 9.9e-05 kPa
291.12 K	0.000122 kPa and 0.000119 kPa and 0.00012 kPa
293.14 K	0.00017 kPa and 0.000165 kPa and 0.000161 kPa
295.15 K	0.000209 kPa and 0.000202 kPa
297.14 K	0.000255 kPa and 0.000248 kPa
299.15 K	0.000332 kPa and 0.000337 kPa and 0.000333 kPa
301.13 K	0.000427 kPa and 0.00041 kPa and 0.000409 kPa
303.14 K	0.000526 kPa and 0.000537 kPa and 0.00052 kPa
305.14 K	0.000644 kPa and 0.000653 kPa and 0.000624 kPa
307.14 K	0.0008 kPa and 0.000809 kPa and 0.000788 kPa
309.15 K	0.00105 kPa and 0.001036 kPa and 0.00101 kPa
